Data from ChEMBL document CHEMBL1142226, “Impact of physicochemical and structural properties on the pharmacokinetics of a series of alpha1L-adrenoceptor antagonists” (Drug Metab Dispos, 2007).

What was measured:
[1] = Metabolic stability in Sprague-Dawley rat bile assessed as drug remaining; type: ADME
[2] = Metabolic stability in Sprague-Dawley rat liver microsomes assessed as half life; type: ADME, Microsome
[3] = Metabolic stability in Sprague-Dawley rat assessed as hepatic extraction ratio; type: ADME, tissue-based; conditions: liver
Liver microsomes = experiment: Unbound intrinsic clearance in human liver microsomes at 1 uM; type: ADME, Microsome
Canis familiaris [4] = experiment: Unbound plasma clearance in Beagle dog at 0.5 mg/kg, iv; type: ADME, organism-based, Canis lupus familiaris; parameters: dose 0.5 mg/kg, route intravenous; conditions: in vivo
[5] = Protein binding in Beagle dog plasma at 1 ug/ml; type: ADME, cell-free, Canis lupus familiaris; conditions: read-out: PPB (converted)
[6] = Metabolic stability in human liver microsomes assessed as half life at 1 uM; type: ADME, Microsome
[7] = Elimination half life in Beagle dog at 0.5 mg/kg, iv; type: ADME, organism-based, Canis lupus familiaris; parameters: dose 0.5 mg/kg, route intravenous; conditions: in vivo
[8] = Fraction unbound in Beagle dog liver microsomes at 1 uM; type: ADME, Canis lupus familiaris, Microsome
[9] = Volume of distribution in Beagle dog at 0.5 mg/kg, iv; type: ADME, organism-based, Canis lupus familiaris; parameters: dose 0.5 mg/kg, route intravenous; conditions: in vivo
Liver = experiment: Unbound intrinsic clearance in Beagle dog liver microsomes at 1 uM; type: ADME, Canis lupus familiaris, Microsome
[10] = Lipophilicity, log D in 0.1M potassium phosphate buffer at pH 7.4; type: physicochemical
[11] = Oral absorption in Beagle dog at 0.5 mg/kg, po; type: ADME, organism-based, Canis lupus familiaris; parameters: dose 0.5 mg/kg, route oral; conditions: in vivo, read-out: Fabs
[12] = Plasma clearance in Beagle dog at 0.5 mg/kg, iv; type: ADME, organism-based, Canis lupus familiaris; parameters: dose 0.5 mg/kg, route intravenous
[13] = Oral bioavailability in Beagle dog at 0.5 mg/kg; type: ADME, organism-based, Canis lupus familiaris; conditions: in vivo
[14] = Metabolic stability in Beagle dog liver microsomes assessed as half life at 1 uM; type: ADME, Canis lupus familiaris, Microsome
Canis familiaris [15] = experiment: Unbound volume of distribution in Beagle dog at 0.5 mg/kg, iv; type: ADME, organism-based, Canis lupus familiaris; parameters: dose 0.5 mg/kg, route intravenous; conditions: in vivo
[16] = Dissociation constant, pKa of the compound; type: physicochemical
[17] = Fraction unbound in human liver microsomes at 1 uM; type: ADME, Microsome
[18] = Oral absorption in Beagle dog at 2 mg/kg, po; type: ADME, organism-based, Canis lupus familiaris; parameters: dose 2 mg/kg, route oral; conditions: in vivo, read-out: Fabs
[19] = Oral bioavailability in Beagle dog at 2 mg/kg; type: ADME, organism-based, Canis lupus familiaris; conditions: in vivo
[20] = Elimination half life in Sprague-Dawley rat at 0.5 mg/kg, iv; type: ADME, organism-based; parameters: dose 0.5 mg/kg, route intravenous; conditions: in vivo
Canis familiaris [21] = experiment: Unbound volume of distribution in Beagle dog at 0.3 mg/kg, iv; type: ADME, organism-based, Canis lupus familiaris; parameters: dose 0.3 mg/kg, route intravenous; conditions: in vivo
[22] = Oral bioavailability in human at 0.25 to 1.5 mg/kg; type: ADME, organism-based; conditions: in vivo
[23] = Volume of distribution in Beagle dog at 0.3 mg/kg, iv; type: ADME, organism-based, Canis lupus familiaris; parameters: dose 0.3 mg/kg, route intravenous; conditions: in vivo
[24] = Cmax in Sprague-Dawley rat at 1 mg/kg, po; type: ADME, organism-based; parameters: dose 1 mg/kg, route oral; conditions: in vivo
[25] = Cmax in human at 0.02 mg/kg, po; type: ADME, organism-based; parameters: dose 0.02 mg/kg, route oral; conditions: in vivo
[26] = Volume of distribution in Sprague-Dawley rat at 0.5 mg/kg, iv; type: ADME, organism-based; parameters: dose 0.5 mg/kg, route intravenous; conditions: in vivo
Homo sapiens = species on record: Homo sapiens; experiment: Protein binding in human plasma at 1 ug/ml; conditions: read-out: PPB (converted)
[27] = Oral bioavailability in Beagle dog at 0.6 mg/kg; type: ADME, organism-based, Canis lupus familiaris; conditions: in vivo
[28] = Protein binding in Sprague-Dawley rat plasma at 1 ug/ml; type: ADME, cell-free; conditions: read-out: PPB (converted)
[29] = Tmax in Sprague-Dawley rat at 1 mg/kg, po; type: ADME, organism-based; parameters: dose 1 mg/kg, route oral; conditions: in vivo
[30] = Plasma clearance in Sprague-Dawley rat at 0.5 mg/kg, iv; type: ADME, organism-based; parameters: dose 0.5 mg/kg, route intravenous
[31] = Oral bioavailability in Sprague-Dawley rat at 1 mg/kg; type: ADME, organism-based; conditions: in vivo
[32] = Plasma clearance in Beagle dog at 0.3 mg/kg, iv; type: ADME, organism-based, Canis lupus familiaris; parameters: dose 0.3 mg/kg, route intravenous
[33] = Tmax in human at 0.02 mg/kg, po; type: ADME, organism-based; parameters: dose 0.02 mg/kg, route oral; conditions: in vivo
[34] = Elimination half life in Sprague-Dawley rat at 1 mg/kg, po; type: ADME, organism-based; parameters: dose 1 mg/kg, route oral; conditions: in vivo
[35] = Elimination half life in Beagle dog at 0.3 mg/kg, iv; type: ADME, organism-based, Canis lupus familiaris; parameters: dose 0.3 mg/kg, route intravenous; conditions: in vivo
Rattus norvegicus = experiment: Unbound volume of distribution in Sprague-Dawley rat at 0.5 mg/kg, iv; type: ADME, organism-based; parameters: dose 0.5 mg/kg, route intravenous; conditions: in vivo
[36] = Elimination half life in human at 0.02 mg/kg, po; type: ADME, organism-based; parameters: dose 0.02 mg/kg, route oral; conditions: in vivo
[37] = Oral absorption in Beagle dog at 0.6 mg/kg, po; type: ADME, organism-based, Canis lupus familiaris; parameters: dose 0.6 mg/kg, route oral; conditions: in vivo, read-out: Fabs
[38] = Antagonist activity at alpha-1L-adrenoceptor in human prostate assessed as inhibition of noradrenaline-mediated contraction; type: functional, tissue-based, Prostate gland
[39] = Antagonist activity at alpha-1-adrenoceptor in rat aorta assessed as inhibition of noradrenaline-mediated contraction; type: functional, tissue-based

Row | Structure (SMILES) | Stability [1] [%] | half-life [2] [h] | hepatic extraction ratio [3] | CL (Liver microsomes) [mL/min/kg] | CL (Canis familiaris [4]) [mL/min/kg] | fraction unbound at 1 ug/ml [5] | half-life at 1 µM [6] [h] | half-life [7] [h] | fraction unbound at 1 µM [8] | Vd [9] [L/kg] | CL (Liver) [mL/min/kg] | logD [10] | clearance [12] [mL/min/kg] | half-life at 1 µM [14] [h] | Vd (Canis familiaris [15]) [L/kg] | pKa [16] | fraction unbound at 1 µM [17] | also measured
1 | COc1cc2c(cc1OC)CN(c1cc(N3CCCN(C(=O)N4CC(O)C(O)C4)CC3)nc3cc(OC)c(OC)cc13)CC2 (centres undefined) | 90 | > 2 | 0.8 | – | – | – | – | – | – | – | – | – | – | – | – | – | – | –
2 | COc1cc2nc(N3CCCN(C(=O)N4CCOCC4)CC3)cc(N)c2c(-c2ccccc2)c1OC | – | – | – | 82 | 88 | 0.12 | 0.15 | 3.6 | 0.59 | 2.8 | 122 | 1.8 | 8.8 | 0.417 | 23 | 8.5 | 0.414 | Fa [11]: 29%; bioavailability [13]: 24%
3 | COc1cc2nc(N3CCCN(C(=O)N4CCOCC4)CC3)nc(N)c2c(-c2ccccn2)c1OC | – | – | – | 34 | 60 | 0.56 | 0.15 | 1.6 | 0.939 | 2.2 | 41 | 1.5 | 20 | 0.767 | 4 | 6.9 | 1 | Fa [18]: 100%; bioavailability [19]: 63%
4 | COc1cc2nc(N3CCCN(C(=O)N4CC(O)C(O)C4)CC3)nc(Nc3ccccn3)c2cc1OC (centres undefined) | 100 | > 2 | 0.7 | – | – | – | – | – | – | – | – | – | – | – | – | – | – | –
5 | COc1cc2nc(N3CCc4c(cccc4NS(C)(=O)=O)C3)nc(N)c2c(-c2ccccn2)c1OC [TAPRIZOSIN] | – | – | – | 13 | – | 0.21 | 0.683 | – | 0.602 | – | 83 | 3 | – | 0.5 | – | 6.7 | 0.564 | half-life [20]: 1 h; Vd (Canis familiaris [21]): 21 L/kg; bioavailability [22]: 73%; Vd [23]: 4.4 L/kg; Cmax [24]: 105 ng/mL; Cmax [25]: 7.5 ng/mL; Vd [26]: 1.7 L/kg; fraction unbound at 1 ug/ml (Homo sapiens): 0.07; bioavailability [27]: 79%; fraction unbound at 1 ug/ml [28]: 0.07; Tmax [29]: 0.5 h; clearance [30]: 22 mL/min/kg; bioavailability [31]: 42%; clearance [32]: 5.6 mL/min/kg; Tmax [33]: 1.3 h; half-life [34]: 2.9 h; half-life [35]: 9.2 h; Vd (Rattus norvegicus): 24 L/kg; half-life [36]: 11.4 h; Fa [37]: 89%
6 | COc1cc2nc(N3CCN(C(=O)C4CCCO4)CC3)nc(N)c2cc1OC (centres undefined) [TERAZOSIN] | – | – | – | – | – | – | – | – | – | – | – | – | – | – | – | – | – | pA2 [38]: 9.8; pA2 [39]: 10
